# Key:
# [1] = test system: Arabidopsis thaliana; assay: MOA1 biochemical (metabolite) profiling by LC-MS and GC-MS of sprayed Arabidopsis; conditions: MOA1; 20 minutes and 1 hour after spraying
# [2] = test system: Arabidopsis thaliana; assay: MOA1 phenotypic profiling of Arabidopsis sprayed with unknown and commercial herbicides; assay type: in vivo
Structure (SMILES),commonly regulated (putative stress-related) metabolites [1],phenotype observed [2]
CC(C)OC(=O)Nc1cccc(Cl)c1 [Chloropropham],neither butylate nor chlorpropham treatment resulted in many changes in these commonly regulated metabolites,neither showed a strong herbicidal phenotype
CCSC(=O)N(CC(C)C)CC(C)C [Butylate],neither butylate nor chlorpropham treatment resulted in many changes in these commonly regulated metabolites,neither showed a strong herbicidal phenotype

# From patent US20040018500A1, “Methods and systems for analyzing complex biological systems” (priority 2001, published 2004)
